Calls of active or inactive are those of the source. The rule behind the calls is not given here.
Legend:
[1] = system: Aorta; assay: Ex vivo antiangiogenic activity in Wistar rat aortic ring assessed as inhibition of angiogenesis at 50 uM after 7 days by phase-contrast microscopy; format: functional
[2] = system: Aorta; assay: Ex vivo antiangiogenic activity in Wistar rat aortic ring assessed as inhibition of angiogenesis at 100 uM after 7 days by phase-contrast microscopy; format: functional, tissue-based
[3] = system: Aorta; assay: Ex vivo antiangiogenic activity in Wistar rat aortic ring assessed as decrease of microvessel length at 100 uM after 7 days by phase-contrast microscopy; format: functional, tissue-based
[4] = system: Aorta; assay: Ex vivo antiangiogenic activity in Wistar rat aortic ring assessed as inhibition of angiogenesis after 7 days by phase-contrast microscopy; format: functional, tissue-based
[5] = system: HUVEC; assay: Antiangiogenic activity in HUVEC assessed as reduction of tube formation at 100 uM after 12 hrs by phase-contrast microscopy; format: functional, cell-based; settings: Homo sapiens
[6] = system: HUVEC; assay: Inhibition of VEGF-induced HUVEC migration at 100 uM after 6 hrs by gelatin-coated Boyden chamber assay; format: functional, cell-based; settings: Homo sapiens
[7] = system: HUVEC; assay: Antiproliferative activity against HUVEC at 5 to 100 uM after 72 hrs by WST-1 assay; format: functional, cell-based; settings: Homo sapiens
[8] = system: HCT-116; assay: Cytotoxicity against human HCT116 cells; format: functional
[9] = Cytotoxicity against HDF; settings: human

With `CCCNC1=C(C)C(=O)c2ccccc2C1=O` the Activity [1] was greater than 50 µM, the Activity [2] was “Active” and the Activity [3] was “Active”. For the same compound, the Activity [4] was “Dose-dependent effect”, the Activity [5] was “Active” and the inhibition [6] was “inactive”. For the same compound, the Activity [7] was “Active”, the Activity [8] was greater than 100 µM and the Activity [9] was greater than 100 µM.
In the case of `CCCCCCCCCNC1=C(C)C(=O)c2ccccc2C1=O`, the Activity [2] is reported as “inactive” and the Activity [3] is reported as “inactive”.
For `CCC1=C(C)C(=O)c2ccccc2C1=O`, the Activity [2] was “Active”.
With `CC1=C(Br)C(=O)c2ccccc2C1=O` the Activity [2] was “Active”.
For `CCCCCCCC1=C(C)C(=O)c2ccccc2C1=O`, the Activity [2] was “inactive” and the Activity [3] was “inactive”.
For `CNC1=C(C)C(=O)c2ccccc2C1=O`, the Activity [2] was “Active”.
With `CCCCCCCCCCC1=C(C)C(=O)c2ccccc2C1=O` the Activity [2] was “inactive” and the Activity [3] was “inactive”.
In the case of `CCCCC1=C(C)C(=O)c2ccccc2C1=O`, the Activity [2] is reported as “inactive” and the Activity [3] is reported as “Active”.
In the case of `CCCCCCNC1=C(C)C(=O)c2ccccc2C1=O`, the Activity [2] is reported as “inactive” and the Activity [3] is reported as “inactive”.
With `CC1=C(C2=C(C)C(=O)c3ccccc3C2=O)C(=O)c2ccccc2C1=O` the Activity [2] was “inactive”.
